Reference: patent publication US20250340516A1, “Isoquinolinones as Modulators of POLRMT” (Pretzel Therapeutics, Inc., priority 2024, published 2025)

target: POLRMT (Homo sapiens (Human), UniProt O00411); assay: homogeneous TR-FRET assay of POLRMT inhibition (mitochondrial transcription, 407 bp RNA product); format: biochemical; conditions: 7.5 nM POLRMT, 15 nM TFB2M, 30 nM TFAM, 0.5 nM DNA template, 500 μM NTPs, 37° C., 60 minutes, * = aggregation of data sets, read-out: IC50 values for isoquinolinone compounds
Sequence (O00411 42-1230): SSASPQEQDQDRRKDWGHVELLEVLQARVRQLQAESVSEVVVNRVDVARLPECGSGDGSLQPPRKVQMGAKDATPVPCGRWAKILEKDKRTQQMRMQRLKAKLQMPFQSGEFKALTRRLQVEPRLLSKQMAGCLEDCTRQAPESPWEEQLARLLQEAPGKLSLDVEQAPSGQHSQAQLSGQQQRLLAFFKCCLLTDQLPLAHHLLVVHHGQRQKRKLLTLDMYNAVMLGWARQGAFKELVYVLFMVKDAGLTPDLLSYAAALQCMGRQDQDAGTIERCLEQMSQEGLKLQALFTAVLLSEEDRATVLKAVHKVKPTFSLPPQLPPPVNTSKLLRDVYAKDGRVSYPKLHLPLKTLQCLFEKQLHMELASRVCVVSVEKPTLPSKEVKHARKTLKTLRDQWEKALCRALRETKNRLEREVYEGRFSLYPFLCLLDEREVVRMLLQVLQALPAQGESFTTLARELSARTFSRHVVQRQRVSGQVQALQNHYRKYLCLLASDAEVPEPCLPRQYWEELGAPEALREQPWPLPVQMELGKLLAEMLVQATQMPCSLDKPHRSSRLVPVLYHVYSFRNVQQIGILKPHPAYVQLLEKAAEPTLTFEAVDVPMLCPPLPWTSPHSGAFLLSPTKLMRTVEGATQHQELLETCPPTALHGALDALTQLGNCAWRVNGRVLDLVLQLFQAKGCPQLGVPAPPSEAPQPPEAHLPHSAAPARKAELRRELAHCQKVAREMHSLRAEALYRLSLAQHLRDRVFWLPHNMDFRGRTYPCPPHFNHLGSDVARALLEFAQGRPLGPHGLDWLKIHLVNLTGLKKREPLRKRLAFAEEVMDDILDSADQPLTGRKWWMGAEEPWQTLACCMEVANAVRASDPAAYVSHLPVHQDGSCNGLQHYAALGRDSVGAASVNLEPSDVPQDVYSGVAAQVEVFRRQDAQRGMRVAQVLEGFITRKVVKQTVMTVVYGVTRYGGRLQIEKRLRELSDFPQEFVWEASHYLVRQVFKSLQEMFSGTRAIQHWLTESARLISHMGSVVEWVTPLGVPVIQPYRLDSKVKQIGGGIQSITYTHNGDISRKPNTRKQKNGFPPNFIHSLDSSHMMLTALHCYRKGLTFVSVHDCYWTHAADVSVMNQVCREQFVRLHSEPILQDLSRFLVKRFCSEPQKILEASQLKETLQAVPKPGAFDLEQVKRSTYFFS
Experimental: The inhibitory activity of the compounds of the present invention against POLRMT were determined by assays based on Bergbrede, T., et al., “An adaptable high-throughput technology enabling the identification of specific transcription modulators,” SLAC Discov., 22, 378-386 (2017).
The ability of some compounds of the present invention to inhibit POLRMT were determined in a homogeneous TR-FRET Assay using high-throughput screening in a 384-well plate format. This method is used to monitor the activity of mitochondrial transcription through measurement of its product, a 407 bp long RNA transcript. Detection of the product is facilitated by hybridization of two DNA-oligonucleotide probes to specific and adjacent sequences within the RNA product sequence. Upon annealing of the probes, two fluorophores are coupled directly to an acceptor nucleotide probe (ATTO647, 5′), or introduced via a coupled streptavidin with a biotinylated donor nucleotide probe (Europium cryptate) that is brought into sufficient proximity to serve as a fluorescence-donor-acceptor pair. Thus, a FRET signal at 665 nm is generated upon excitation at 340 nm.
Proteins used as transcription factors (POLRMT: NP_005026.3, TFAM: NP_003192.1, TFB2M: NP_071761.1) are diluted from their stocks to working concentrations of 1 μM, 20 μM and 4 μM respectively, in a dilution buffer containing 20 mM Tris-HCl (pH 8.0), 200 mM NaCl, 10% (v/v) glycerol, 1 mM Dithiothreitol (DTT), 0.5 mM EDTA.
DNA template is a pUC18 plasmid with the mitochondrial light strand promotor sequence (1-477) cloned between HindIII and BamHI sites. The DNA template is restriction linearized proximal to the promotor 3′-end (pUC-LSP).
The reaction mixture (10 uL) containing 7.5 nM POLRMT, 15 nM of TFB2M, 30 nM of TFAM, 0.5 nM of DNA template and 500 μM nucleotide triphosphate mix (NTPs) in a reaction buffer (containing 10 mM Tris-HCl (pH 7.5), 10 mM MgCl2, 40 mM NaCl, 10 mM DTT, 0.005% (w/v) Tween-20, 160 units/ml Rnase inhibitor and 0.1 mg/mL BSA) are dispensed to compounds in microplates, using a Thermo Multidrop® dispenser, and incubated at 37° C. in a VWR INCU-Line incubator for 60 minutes after mixing. No nucleotide triphosphate mix is added to negative control samples. Microplates with compounds to be tested in the assay are prepared from 10 mM compound stocks in 100% DMSO, equal amounts of DMSO without any compound are added to positive control and negative control samples.
During the incubation, a mix of the detection reagents is prepared in a buffer such that the enzymatic reaction is terminated due to chelating of Mg-ions and increased ionic strength, containing 50 mM Tris-HCl (pH 7.5), 700 mM NaCl, 20 mM EDTA, and 0.01% (w/v) Tween-20. Europium-streptavidin is pre-incubated with a 200-fold molar excess of a random sequence oligonucleotide to block unspecific binding of oligo, for two hours at ambient temperature in the dark. Afterwards, the blocked Europium-streptavidin is kept on ice until use.
At the end of the enzymatic reaction time, 5 μL detection oligo mix in the detection buffer is added, and assay plates are mixed and kept at ambient temperature for one hour, protected from light. The concentration of the Acceptor nucleotide oligo (e.g., ATTO647N-5′-[…]-3′ (SEQ ID NO: 1)) and Donor nucleotide oligo (e.g., bio-5′-AACACATCTCT(-bio)GCCAAACCCCA-bio-3′ (SEQ ID NO: 2)) in each assay well is 1 nM, and 3 nM, respectively.
After incubation with oligo mix, 5 μL of pre-blocked Europium-streptavidin reagent is dispensed to each assay well, assay plates are again mixed and kept at ambient temperature for one hour, protected from light.
The generated signal is measured with BMG Pherastar microtiter plate reader with a TRF light unit, using excitation at 340 nm, an integration time of 200 μs, and a delay time of 100 μs, before detection at 620 nm and 665 nm. The ratio of donor- and acceptor-fluorescence is used as a measure of the generated transcript product (i.e. enzymatic activity).

| SMILES | IC50 [nM] |
| --- | --- |
| C[C@@H](C(=O)N1CCC[C@H](C(=O)O)C1)N(C)c1ccc2c(-c3ccc(F)cc3Cl)c[nH]c(=O)c2c1 (single isomer, unassigned) [Example 5] | 8000 |
| C[C@@H](Oc1ccc2c(-c3ccc(F)cc3Cl)c[nH]c(=O)c2c1)C(=O)N1CCCC(C2(C(=O)O)CC2)C1 (single isomer, unassigned) [Example 37] | 50 |
| Cc1ccccc1-c1c[nH]c(=O)c2cc(O[C@H](C)C(=O)N3CC(C(=O)O)CC(F)(F)C3)ccc12 (single isomer, unassigned) [Example 1] | 60 |
| COCCN1CCN(C(=O)[C@@H](C)Oc2ccc3c(-c4ccccc4C)c[nH]c(=O)c3c2)CC1=O [Example 23, (R)-7-((1-(4-(2-methoxyethyl)-3-oxopiperazin-1-yl)-1-oxopropan-2-yl)oxy)-4-(o-tolyl)isoquinolin-1(2H)-one] | 300 |
| Cc1ccccc1-c1c[nH]c(=O)c2cc(O[C@H](C)C(=O)N3CCCC(CC(=O)O)C3)ccc12 (single isomer, unassigned) [Example 13] | 70 |
| Cc1cccc(C)c1-c1c[nH]c(=O)c2cc(O[C@H](C)C(=O)N3CCC(C)(C(=O)O)CC3)ccc12 [Example 20, (R)-1-(2-((4-(2,6-dimethylphenyl)-1-oxo-1,2-dihydroisoquinolin-7-yl)oxy)propanoyl)-4-methylpiperidine-4-carboxylic acid] | 100 |
| Cc1ccccc1-c1c[nH]c(=O)c2cc(O[C@H](C)C(=O)N3CCC(N(C)C)CC3)ccc12 [Example 31, (R)-7-((1-(4-(dimethylamino)piperidin-1-yl)-1-oxopropan-2-yl)oxy)-4-(o-tolyl)isoquinolin-1(2H)-one] | 300 |
| C[C@@H](Oc1ccc2c(-c3ccc(F)cc3Cl)c[nH]c(=O)c2c1)C(=O)N1CC(C(N)=O)CC(F)(F)C1 (single isomer, unassigned) [Example 9] | 200 |
| Cc1ccccc1-c1c[nH]c(=O)c2cc(O[C@H](C)C(=O)N3CCC(NC(N)=O)CC3)ccc12 [Example 30, (R)-1-(1-(2-((1-oxo-4-(o-tolyl)-1,2-dihydroisoquinolin-7-yl)oxy)propanoyl)piperidin-4-yl)urea] | 70 |
| C[C@@H](Oc1ccc2c(-c3ccc(F)cc3Cl)c[nH]c(=O)c2c1)C(=O)N1CCCC(C2(C(=O)O)CC2)C1 (single isomer, unassigned) [Example 36] | 80 |
| CC(=O)N(C)CCN(C)C(=O)[C@@H](C)Oc1ccc2c(-c3ccccc3C)c[nH]c(=O)c2c1 [Example 22, (R)-N-methyl-N-(2-(N-methylacetamido)ethyl)-2-((1-oxo-4-(o-tolyl)-1,2-dihydroisoquinolin-7-yl)oxy)propanamide] | 2000 |
| Cc1ccccc1-c1c[nH]c(=O)c2cc(O[C@@H](C)C(=O)N(C)CC(=O)O)ccc12 [Example 26, (S)-N-methyl-N-(2-((1-oxo-4-(o-tolyl)-1,2-dihydroisoquinolin-7-yl)oxy)propanoyl)glycine] | 43000 |
| CC(=O)N[C@H]1CCCN(C(=O)[C@@H](C)Oc2ccc3c(-c4ccccc4C)c[nH]c(=O)c3c2)C1 [Example 28, N-((S)-1-((R)-2-((1-oxo-4-(o-tolyl)-1,2-dihydroisoquinolin-7-yl)oxy)propanoyl)piperidin-3-yl)acetamide] | 100 |

Further lines, results first:

| IC50 [nM] | SMILES |
| --- | --- |
| 100 | Cc1ccccc1-c1c[nH]c(=O)c2cc(O[C@H](C)C(=O)N(C)CC(N)=O)ccc12 [Example 61, (R)-N-(2-amino-2-oxoethyl)-N-methyl-2-((1-oxo-4-(o-tolyl)-1,2-dihydroisoquinolin-7-yl)oxy)propanamide] |
| 18000 | COCc1ccccc1-c1c[nH]c(=O)c2cc(OCC#N)ccc12 [Example 47, 2-((4-(2-(methoxymethyl)phenyl)-1-oxo-1,2-dihydroisoquinolin-7-yl)oxy)acetonitrile] |
| 100 | Cc1ccccc1-c1c[nH]c(=O)c2cc(O[C@H](C)C(=O)N[C@@H](C)C(N)=O)ccc12 [Example 73, (R)-N-((S)-1-amino-1-oxopropan-2-yl)-2-((1-oxo-4-(o-tolyl)-1,2-dihydroisoquinolin-7-yl)oxy)propanamide] |
| 1000 | CCNC1CCN(C(=O)[C@@H](C)Oc2ccc3c(-c4ccccc4C)c[nH]c(=O)c3c2)CC1 [Example 77, (R)-7-((1-(4-(ethylamino)piperidin-1-yl)-1-oxopropan-2-yl)oxy)-4-(o-tolyl)isoquinolin-1(2H)-one] |
| 4000 | CC(=O)N1CCN(C[C@@H](C)Oc2ccc3c(-c4ccccc4C)c[nH]c(=O)c3c2)CC1 [Example 54, (R)-7-((1-(4-acetylpiperazin-1-yl)propan-2-yl)oxy)-4-(o-tolyl)isoquinolin-1(2H)-one] |
| 40 | Cc1ccccc1-c1c[nH]c(=O)c2cc(O[C@H](C)C(=O)N3CCC[C@@H](CC(N)=O)C3)ccc12 [Example 39, 2-((S)-1-((R)-2-((1-oxo-4-(o-tolyl)-1,2-dihydroisoquinolin-7-yl)oxy)propanoyl)piperidin-3-yl)acetamide] |
| 20 | Cc1ccccc1-c1c[nH]c(=O)c2cc(O[C@H](C)C(=O)N3CCCC(C4(C(N)=O)CC4)C3)ccc12 (single isomer, unassigned) [Example 40] |
| 20 | Cc1ccccc1-c1c[nH]c(=O)c2cc(O[C@H](C)C(=O)N3CCCC(C(C)(C)C(=O)O)C3)ccc12 (single isomer, unassigned) [Example 43] |
| 60 | Cc1ccccc1-c1c[nH]c(=O)c2cc(O[C@H](C)C(=O)N3CCCC(C(C)(C)C(=O)O)C3)ccc12 (single isomer, unassigned) [Example 44] |
| 9 | Cc1ccccc1-c1c[nH]c(=O)c2cc(O[C@H](C)C(=O)N3CCC[C@H](CC(N)=O)C3)ccc12 [Example 38, 2-((R)-1-((R)-2-((1-oxo-4-(o-tolyl)-1,2-dihydroisoquinolin-7-yl)oxy)propanoyl)piperidin-3-yl)acetamide] |
| 30 | Cc1cc(F)ccc1-c1c[nH]c(=O)c2cc(O[C@H](C)C(=O)N3CCN(C(N)=O)CC3)ccc12 [Example 56, (R)-4-(2-((4-(4-fluoro-2-methylphenyl)-1-oxo-1,2-dihydroisoquinolin-7-yl)oxy)propanoyl)piperazine-1-carboxamide] |
| 40 | CCC1(C(=O)O)CCCN(C(=O)[C@@H](C)Oc2ccc3c(-c4ccccc4C)c[nH]c(=O)c3c2)C1 (single isomer, unassigned) [Example 53] |
| 80 | Cc1cccc(CO)c1-c1c[nH]c(=O)c2cc(OCC(F)(F)F)ccc12 [Example 71, 4-(2-(hydroxymethyl)-6-methylphenyl)-7-(2,2,2-trifluoroethoxy)isoquinolin-1(2H)-one] |
| 2000 | Cc1ccccc1-c1c[nH]c(=O)c2cc(O[C@H](C)C(=O)N3CCCCC(N(C)C)C3)ccc12 (single isomer, unassigned) [Example 76] |
| 500 | Cc1cccc(C#N)c1-c1c[nH]c(=O)c2cc(OCC#N)ccc12 [Example 48, 2-(7-(cyanomethoxy)-1-oxo-1,2-dihydroisoquinolin-4-yl)-3-methylbenzonitrile] |
| 40 | CCCC1(C(=O)O)CCCN(C(=O)[C@@H](C)Oc2ccc3c(-c4ccccc4C)c[nH]c(=O)c3c2)C1 (single isomer, unassigned) [Example 67] |
